From patent publication US6503449B1, “Process for the control of microbial contamination in water-based solids suspensions” (Ciba Specialty Chemicals Corporation, priority 1998, dated 2003)

System: Xanthomonas maltophilia and Pseudomonas mendocina
Experiment: Sonication of Pigment Red 53.1 dispersion with biocide, bacterial contamination check
Format: cell-based
Text: A mixture of Pigment Red 23, available from Ciba Specialty Chemicals(UK) Ltd., 215.5 parts, Emulan OG (RTM) (35% solution in water), available from BASF, 153.7 parts, tributyl phosphate, available from Albright & Wilson, 2 parts, and water, 128.8 parts, are dispersed by re-circulation through a Bachofen KDL200 bead-mill until colouristic properties are within specification of UNISPERSE (RTM) Red RBS-PI, available from Ciba Specialty Chemicals(UK) Ltd., and adjusted to pH 8.0-8.5 with 20% sodium hydroxide solution. This material is identified as containing the Gram negative bacterium, Pseudomonas putida. 50 millilitre aliquots of this dispersion containing levels of glutaraldehyde (pentane-1,5-dialdehyde), available as the trade product Protectol GDA form BASF or Ucarcide from Union Carbide, between 0 parts per million (ppm) and 2000 ppm are sonicated using a Branson MSE sonicator with a 19 mm horn probe resonating at 20 kHz with an amplitude of 6 microns. Sonication is undertaken in a 100 millilitre glass beaker, diameter 38 mm, with magnetic flea agitator and cooled in a water/ice bath to maintain temperature at 28-32° C. Bacterial growth in each sample is assessed at 5 minute intervals by streaking each dispersion on to Nutrient Agar(NA) plates and incubating the plates for a minimum of 48 hours at 30° C. The plates are then examined for bacterial colonies and expressed according to the following notation:
A mixture of Pigment Red 53.1, available from S&D Chemicals Ltd., 37 parts, Emulan OG (35% solution), 25.9 parts, 2-ethylhexanoic acid, available from Barratt Chemicals Ltd., 3 parts tributyl phosphate, 0.3 parts, and water 31.74 parts are dispersed by a single pass through a Bachofen KDL Special beadmill containing 1.0 mm Yttrium-stabilised Zirconium Oxide beads. This material is identified as containing the Gram negative bacteria, Xanthomonas maltophilia and Pseudomonas mendocina. 50 millilitre aliquots of this dispersion are treated with pentane-1,5-dialdehyde (Ucarcide 250) and CIT/MIT mixture (Acticide LG) according to the process defined in Example 1 and each sample checked for bacterial contamination according to the following table: […]

Structure (SMILES): O=CCCCC=O [glutaraldehyde, pentane-1,5-dialdehyde]
- bacterial contamination (500 ppm Ucarcide 250, 3 days after sonication): +++ (heavy contamination(>10^5 cfu/ml))
- bacterial contamination (500 ppm Ucarcide 250, 7 days after sonication): +++ (heavy contamination(>10^5 cfu/ml))
- bacterial contamination (500 ppm Ucarcide 250, 14 days after sonication): +++ (heavy contamination(>10^5 cfu/ml))
- bacterial contamination (500 ppm Ucarcide 250, 28 days after sonication): +++ (heavy contamination(>10^5 cfu/ml))
- bacterial contamination (500 ppm Ucarcide 250, 90 days after sonication): +++ (heavy contamination(>10^5 cfu/ml))
- bacterial contamination (500 ppm Ucarcide 250, sonicated 0 mins.): +++ (heavy contamination(>10^5 cfu/ml))
- bacterial contamination (500 ppm Ucarcide 250, sonicated 5 mins.): +++ (heavy contamination(>10^5 cfu/ml))
- bacterial contamination (500 ppm Ucarcide 250, sonicated 10 mins.): +++ (heavy contamination(>10^5 cfu/ml))
- bacterial contamination (500 ppm Ucarcide 250, sonicated 15 mins.): +++ (heavy contamination(>10^5 cfu/ml))
- bacterial contamination (500 ppm Ucarcide 250, sonicated 20 mins.): +++ (heavy contamination(>10^5 cfu/ml))
- bacterial contamination (500 ppm Ucarcide 250, sonicated 25 mins.): +++ (heavy contamination(>10^5 cfu/ml))
- bacterial contamination (500 ppm Ucarcide 250, sonicated 30 mins.): ++ (moderate contamination(10^3-10^5 cfu/ml))
- bacterial contamination (500 ppm Ucarcide 250, sonicated 35 mins.): ++ (moderate contamination(10^3-10^5 cfu/ml))
- bacterial contamination (500 ppm Ucarcide 250, sonicated 40 mins.): ++ (moderate contamination(10^3-10^5 cfu/ml))
- bacterial contamination (500 ppm Ucarcide 250, sonicated 45 mins.): ++ (moderate contamination(10^3-10^5 cfu/ml))
- bacterial contamination (500 ppm Ucarcide 250, sonicated 50 mins.): ++ (moderate contamination(10^3-10^5 cfu/ml))
- bacterial contamination (500 ppm Ucarcide 250, sonicated 55 mins.): + (light contamination (10^0 and 10^3 cfu/ml))
- bacterial contamination (500 ppm Ucarcide 250, sonicated 60 mins.): + (light contamination (10^0 and 10^3 cfu/ml))
- bacterial contamination (750 ppm Ucarcide 250, 3 days after sonication): +++ (heavy contamination(>10^5 cfu/ml))
- bacterial contamination (750 ppm Ucarcide 250, 7 days after sonication): +++ (heavy contamination(>10^5 cfu/ml))
- bacterial contamination (750 ppm Ucarcide 250, 14 days after sonication): +++ (heavy contamination(>10^5 cfu/ml))
- bacterial contamination (750 ppm Ucarcide 250, 28 days after sonication): +++ (heavy contamination(>10^5 cfu/ml))
- bacterial contamination (750 ppm Ucarcide 250, 90 days after sonication): +++ (heavy contamination(>10^5 cfu/ml))
- bacterial contamination (750 ppm Ucarcide 250, sonicated 0 mins.): +++ (heavy contamination(>10^5 cfu/ml))
- bacterial contamination (750 ppm Ucarcide 250, sonicated 5 mins.): +++ (heavy contamination(>10^5 cfu/ml))
- bacterial contamination (750 ppm Ucarcide 250, sonicated 10 mins.): +++ (heavy contamination(>10^5 cfu/ml))
- bacterial contamination (750 ppm Ucarcide 250, sonicated 15 mins.): +++ (heavy contamination(>10^5 cfu/ml))
- bacterial contamination (750 ppm Ucarcide 250, sonicated 20 mins.): +++ (heavy contamination(>10^5 cfu/ml))
- bacterial contamination (750 ppm Ucarcide 250, sonicated 25 mins.): +++ (heavy contamination(>10^5 cfu/ml))
- bacterial contamination (750 ppm Ucarcide 250, sonicated 30 mins.): ++ (moderate contamination(10^3-10^5 cfu/ml))
- bacterial contamination (750 ppm Ucarcide 250, sonicated 35 mins.): ++ (moderate contamination(10^3-10^5 cfu/ml))
- bacterial contamination (750 ppm Ucarcide 250, sonicated 40 mins.): ++ (moderate contamination(10^3-10^5 cfu/ml))
- bacterial contamination (750 ppm Ucarcide 250, sonicated 45 mins.): ++ (moderate contamination(10^3-10^5 cfu/ml))
- bacterial contamination (750 ppm Ucarcide 250, sonicated 50 mins.): + (light contamination (10^0 and 10^3 cfu/ml))
- bacterial contamination (750 ppm Ucarcide 250, sonicated 55 mins.): + (light contamination (10^0 and 10^3 cfu/ml))
- bacterial contamination (750 ppm Ucarcide 250, sonicated 60 mins.): + (light contamination (10^0 and 10^3 cfu/ml))
- bacterial contamination (1000 ppm Ucarcide 250, 3 days after sonication): +++ (heavy contamination(>10^5 cfu/ml))
- bacterial contamination (1000 ppm Ucarcide 250, 7 days after sonication): +++ (heavy contamination(>10^5 cfu/ml))
- bacterial contamination (1000 ppm Ucarcide 250, 14 days after sonication): +++ (heavy contamination(>10^5 cfu/ml))
- bacterial contamination (1000 ppm Ucarcide 250, 28 days after sonication): +++ (heavy contamination(>10^5 cfu/ml))
- bacterial contamination (1000 ppm Ucarcide 250, 90 days after sonication): +++ (heavy contamination(>10^5 cfu/ml))
- bacterial contamination (1000 ppm Ucarcide 250, sonicated 0 mins.): +++ (heavy contamination(>10^5 cfu/ml))
- bacterial contamination (1000 ppm Ucarcide 250, sonicated 5 mins.): +++ (heavy contamination(>10^5 cfu/ml))
- bacterial contamination (1000 ppm Ucarcide 250, sonicated 10 mins.): +++ (heavy contamination(>10^5 cfu/ml))
- bacterial contamination (1000 ppm Ucarcide 250, sonicated 15 mins.): +++ (heavy contamination(>10^5 cfu/ml))
- bacterial contamination (1000 ppm Ucarcide 250, sonicated 20 mins.): ++ (moderate contamination(10^3-10^5 cfu/ml))
- bacterial contamination (1000 ppm Ucarcide 250, sonicated 25 mins.): ++ (moderate contamination(10^3-10^5 cfu/ml))
- bacterial contamination (1000 ppm Ucarcide 250, sonicated 30 mins.): + (light contamination (10^0 and 10^3 cfu/ml))
- bacterial contamination (1000 ppm Ucarcide 250, sonicated 35 mins.): + (light contamination (10^0 and 10^3 cfu/ml))
- bacterial contamination (1000 ppm Ucarcide 250, sonicated 40 mins.): + (light contamination (10^0 and 10^3 cfu/ml))
- bacterial contamination (1000 ppm Ucarcide 250, sonicated 45 mins.): + (light contamination (10^0 and 10^3 cfu/ml))
- bacterial contamination (1000 ppm Ucarcide 250, sonicated 50 mins.): + (light contamination (10^0 and 10^3 cfu/ml))
- bacterial contamination (1000 ppm Ucarcide 250, sonicated 55 mins.): + (light contamination (10^0 and 10^3 cfu/ml))
- bacterial contamination (1000 ppm Ucarcide 250, sonicated 60 mins.): + (light contamination (10^0 and 10^3 cfu/ml))
- bacterial contamination (1500 ppm Ucarcide 250, 3 days after sonication): +++ (heavy contamination(>10^5 cfu/ml))
- bacterial contamination (1500 ppm Ucarcide 250, 7 days after sonication): +++ (heavy contamination(>10^5 cfu/ml))
- bacterial contamination (1500 ppm Ucarcide 250, 14 days after sonication): +++ (heavy contamination(>10^5 cfu/ml))
- bacterial contamination (1500 ppm Ucarcide 250, 28 days after sonication): +++ (heavy contamination(>10^5 cfu/ml))
- bacterial contamination (1500 ppm Ucarcide 250, 90 days after sonication): +++ (heavy contamination(>10^5 cfu/ml))
- bacterial contamination (1500 ppm Ucarcide 250, sonicated 0 mins.): +++ (heavy contamination(>10^5 cfu/ml))
- bacterial contamination (1500 ppm Ucarcide 250, sonicated 5 mins.): +++ (heavy contamination(>10^5 cfu/ml))
- bacterial contamination (1500 ppm Ucarcide 250, sonicated 10 mins.): +++ (heavy contamination(>10^5 cfu/ml))
- bacterial contamination (1500 ppm Ucarcide 250, sonicated 15 mins.): +++ (heavy contamination(>10^5 cfu/ml))
- bacterial contamination (1500 ppm Ucarcide 250, sonicated 20 mins.): ++ (moderate contamination(10^3-10^5 cfu/ml))
- bacterial contamination (1500 ppm Ucarcide 250, sonicated 25 mins.): + (light contamination (10^0 and 10^3 cfu/ml))
- bacterial contamination (1500 ppm Ucarcide 250, sonicated 30 mins.): + (light contamination (10^0 and 10^3 cfu/ml))
- bacterial contamination (1500 ppm Ucarcide 250, sonicated 35 mins.): + (light contamination (10^0 and 10^3 cfu/ml))
- bacterial contamination (1500 ppm Ucarcide 250, sonicated 40 mins.): + (light contamination (10^0 and 10^3 cfu/ml))
- bacterial contamination (1500 ppm Ucarcide 250, sonicated 45 mins.): + (light contamination (10^0 and 10^3 cfu/ml))
- bacterial contamination (1500 ppm Ucarcide 250, sonicated 50 mins.): + (light contamination (10^0 and 10^3 cfu/ml))
- bacterial contamination (1500 ppm Ucarcide 250, sonicated 55 mins.): + (light contamination (10^0 and 10^3 cfu/ml))
- bacterial contamination (1500 ppm Ucarcide 250, sonicated 60 mins.): + (light contamination (10^0 and 10^3 cfu/ml))
